Key:
Type in all cases: biochemical
Human Tyk2 kinase domain = target: T1, Human Tyk2 kinase domain (Homo sapiens, UniProt P29597); assay: Tyk2 Inhibition Assay (Omnia kinase fluorescence peptide substrate); conditions: averaged IC50 ranges; 10 μM (Km app) or 1 mM ATP, 2 nM Tyk2
T1 construct: comprising amino acids 886 to 1187; His10 (10 histidine residues) (C, cleaved yes); made in house
T1 sequence (P29597 886-1187): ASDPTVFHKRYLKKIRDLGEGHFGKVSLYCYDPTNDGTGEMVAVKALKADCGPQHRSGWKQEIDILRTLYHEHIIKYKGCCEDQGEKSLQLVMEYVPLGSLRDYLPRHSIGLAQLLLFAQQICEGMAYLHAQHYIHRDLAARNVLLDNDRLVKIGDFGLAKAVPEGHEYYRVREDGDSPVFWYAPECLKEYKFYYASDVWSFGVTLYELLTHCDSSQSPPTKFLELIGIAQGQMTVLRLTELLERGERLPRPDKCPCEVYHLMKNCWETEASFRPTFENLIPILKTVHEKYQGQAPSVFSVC
How it was run: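 Phosphorylation of 8 μM Omnia Y12 peptide followed kinetically by Sox fluorescence, ex 360/em 485 nm, every 50 s for 45 min. Enzyme: 2 nM Tyk2 kinase domain (aa 886–1187, His tag removed); ATP at 10 μM (Km app) or 1 mM; buffer HEPES pH 7.4 with MgCl2, Triton X-100, DTT. 10-point curves up to 10 μM, IC50 from 4-parameter logistic fit.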

JAK1 = target: T2, JAK1 (Homo sapiens, UniProt P23458); assay: JAK1 Inhibition Assay (Omnia kinase fluorescence peptide substrate); conditions: averaged IC50 ranges; 40 μM (Km app) or 1 mM ATP, 15 nM JAK1
T2 construct: purchased Invitrogen Corporation, Carlsbad, Calif; IVGN PV4775
How it was run: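 15 nM JAK1, 8 μM Omnia Y12 peptide, 40 μM (Km app) or 1 mM ATP; 25 mM HEPES pH 7.4, 10 mM MgCl2, 2% DMSO. Fluorescence (ex 360/em 485 nm) read every 50 s over 45 min. IC50 by 4-parameter fit of percent of control, top dose 10 μM.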

JAK2 = target: T3, JAK2 (Homo sapiens, UniProt O60674); assay: JAK2 Inhibition Assay (Omnia kinase fluorescence peptide substrate); conditions: averaged IC50 ranges; 25 μM (Km app) or 1 mM ATP, 5 nM JAK2
T3 construct: purchased Invitrogen Corporation, Carlsbad, Calif; IVGN PV4288

JAK3 = target: T4, JAK3 (Homo sapiens, UniProt P52333); assay: JAK3 Inhibition Assay (Omnia kinase fluorescence peptide substrate); conditions: averaged IC50 ranges; 10 μM (Km app) or 1 mM ATP, 2.5 nM JAK3
T4 construct: purchased Invitrogen Corporation, Carlsbad, Calif; IVGN PV4080
T4 sequence (P52333 1-1124): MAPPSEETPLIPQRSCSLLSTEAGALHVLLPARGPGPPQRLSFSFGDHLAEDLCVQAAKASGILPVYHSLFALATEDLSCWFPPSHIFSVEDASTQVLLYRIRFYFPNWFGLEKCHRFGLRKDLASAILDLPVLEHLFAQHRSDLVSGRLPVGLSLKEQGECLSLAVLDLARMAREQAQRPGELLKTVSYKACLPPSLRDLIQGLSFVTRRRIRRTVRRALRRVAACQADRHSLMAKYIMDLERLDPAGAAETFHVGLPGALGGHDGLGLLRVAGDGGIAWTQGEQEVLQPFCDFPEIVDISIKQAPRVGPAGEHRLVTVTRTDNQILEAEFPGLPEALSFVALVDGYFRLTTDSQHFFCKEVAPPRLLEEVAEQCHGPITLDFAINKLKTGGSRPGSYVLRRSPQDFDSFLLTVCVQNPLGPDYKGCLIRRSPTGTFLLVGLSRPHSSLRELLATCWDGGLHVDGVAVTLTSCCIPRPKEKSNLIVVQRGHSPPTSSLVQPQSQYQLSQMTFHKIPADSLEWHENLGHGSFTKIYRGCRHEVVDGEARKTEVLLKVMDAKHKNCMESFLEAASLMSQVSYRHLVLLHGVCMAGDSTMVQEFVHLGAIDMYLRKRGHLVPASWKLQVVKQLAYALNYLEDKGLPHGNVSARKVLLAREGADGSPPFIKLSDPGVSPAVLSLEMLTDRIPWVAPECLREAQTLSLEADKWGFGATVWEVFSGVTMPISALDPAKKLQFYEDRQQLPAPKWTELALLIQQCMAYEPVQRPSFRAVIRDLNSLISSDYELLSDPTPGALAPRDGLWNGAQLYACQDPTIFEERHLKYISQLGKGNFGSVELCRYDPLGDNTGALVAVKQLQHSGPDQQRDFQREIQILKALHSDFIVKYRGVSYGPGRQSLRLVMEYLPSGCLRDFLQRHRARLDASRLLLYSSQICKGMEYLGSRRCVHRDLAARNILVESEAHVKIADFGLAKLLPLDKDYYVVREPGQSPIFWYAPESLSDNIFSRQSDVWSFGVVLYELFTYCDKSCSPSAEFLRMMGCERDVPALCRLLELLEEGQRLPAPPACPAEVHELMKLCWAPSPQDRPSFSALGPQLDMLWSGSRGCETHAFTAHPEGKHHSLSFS
How it was run: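 IC50 is the concentration giving 50 percent of control on a 4-parameter logistic fit of 10-point, 3-fold dilutions from a 10 μM top dose, at 2% final DMSO. Kinetic Sox fluorescence (360/485 nm) was monitored every 50 s for 45 min. Mix: JAK3 2.5 nM, Omnia Y7 peptide 10 μM, ATP 10 μM (Km app) or 1 mM, in HEPES pH 7.4 buffer with MgCl2, Triton X-100 and DTT.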

T2 sequence (P23458 whole entry): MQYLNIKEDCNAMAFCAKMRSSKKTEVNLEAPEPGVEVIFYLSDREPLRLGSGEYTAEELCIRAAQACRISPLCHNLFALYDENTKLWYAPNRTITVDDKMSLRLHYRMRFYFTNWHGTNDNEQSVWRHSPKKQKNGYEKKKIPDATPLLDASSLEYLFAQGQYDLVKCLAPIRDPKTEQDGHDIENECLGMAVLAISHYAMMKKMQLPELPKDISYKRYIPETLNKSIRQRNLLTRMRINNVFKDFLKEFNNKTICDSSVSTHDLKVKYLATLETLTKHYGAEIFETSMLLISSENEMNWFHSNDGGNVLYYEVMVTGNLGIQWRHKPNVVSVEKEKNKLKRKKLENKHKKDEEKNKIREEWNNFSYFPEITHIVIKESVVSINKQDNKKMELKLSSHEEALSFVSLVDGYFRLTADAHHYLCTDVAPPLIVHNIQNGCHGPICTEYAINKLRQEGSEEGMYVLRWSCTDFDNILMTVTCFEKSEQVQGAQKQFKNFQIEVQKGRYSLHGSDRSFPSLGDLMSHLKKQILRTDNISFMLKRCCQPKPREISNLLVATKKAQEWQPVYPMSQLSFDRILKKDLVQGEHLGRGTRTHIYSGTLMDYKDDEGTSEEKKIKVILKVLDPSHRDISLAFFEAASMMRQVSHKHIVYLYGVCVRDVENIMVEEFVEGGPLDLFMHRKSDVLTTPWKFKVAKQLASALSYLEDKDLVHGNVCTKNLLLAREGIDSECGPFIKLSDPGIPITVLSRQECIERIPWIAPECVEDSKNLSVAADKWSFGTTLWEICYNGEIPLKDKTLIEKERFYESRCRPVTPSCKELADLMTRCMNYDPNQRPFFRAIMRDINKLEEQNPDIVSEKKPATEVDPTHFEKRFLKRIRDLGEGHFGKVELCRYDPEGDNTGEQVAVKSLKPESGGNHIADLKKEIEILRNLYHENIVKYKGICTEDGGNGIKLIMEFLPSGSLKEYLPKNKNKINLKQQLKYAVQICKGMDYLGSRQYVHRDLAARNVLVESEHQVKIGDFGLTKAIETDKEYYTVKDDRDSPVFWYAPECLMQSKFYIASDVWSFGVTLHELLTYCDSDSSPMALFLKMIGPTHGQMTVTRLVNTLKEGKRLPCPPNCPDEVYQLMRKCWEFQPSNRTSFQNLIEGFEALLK
T3 sequence (O60674 whole entry): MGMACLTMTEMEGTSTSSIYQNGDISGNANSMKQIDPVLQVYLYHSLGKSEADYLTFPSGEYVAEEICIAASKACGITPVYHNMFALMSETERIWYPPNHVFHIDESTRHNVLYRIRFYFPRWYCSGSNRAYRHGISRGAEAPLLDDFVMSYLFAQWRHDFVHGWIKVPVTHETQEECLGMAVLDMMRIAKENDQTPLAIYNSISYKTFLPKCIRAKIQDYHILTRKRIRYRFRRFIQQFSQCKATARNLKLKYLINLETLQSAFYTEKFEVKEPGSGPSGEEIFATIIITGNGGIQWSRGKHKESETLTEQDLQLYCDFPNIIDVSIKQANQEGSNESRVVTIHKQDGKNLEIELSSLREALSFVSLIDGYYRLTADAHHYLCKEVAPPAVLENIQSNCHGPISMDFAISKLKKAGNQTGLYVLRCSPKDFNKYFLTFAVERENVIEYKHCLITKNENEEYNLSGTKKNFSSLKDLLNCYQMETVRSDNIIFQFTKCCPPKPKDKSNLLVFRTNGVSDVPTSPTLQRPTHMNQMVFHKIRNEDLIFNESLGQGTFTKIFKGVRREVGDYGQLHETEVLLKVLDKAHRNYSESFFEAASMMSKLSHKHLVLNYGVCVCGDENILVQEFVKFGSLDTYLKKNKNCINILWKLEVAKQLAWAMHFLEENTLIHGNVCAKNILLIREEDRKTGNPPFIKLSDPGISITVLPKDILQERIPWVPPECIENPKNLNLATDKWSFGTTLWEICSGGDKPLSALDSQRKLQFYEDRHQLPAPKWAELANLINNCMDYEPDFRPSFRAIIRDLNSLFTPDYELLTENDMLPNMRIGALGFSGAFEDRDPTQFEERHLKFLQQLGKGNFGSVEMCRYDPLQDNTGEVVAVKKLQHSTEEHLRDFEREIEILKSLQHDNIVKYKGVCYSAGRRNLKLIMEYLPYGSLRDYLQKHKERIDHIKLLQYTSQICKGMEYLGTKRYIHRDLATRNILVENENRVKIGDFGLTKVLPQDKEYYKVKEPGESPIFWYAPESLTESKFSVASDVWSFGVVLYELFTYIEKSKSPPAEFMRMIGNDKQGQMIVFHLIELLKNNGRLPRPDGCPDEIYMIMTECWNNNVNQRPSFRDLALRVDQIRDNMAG

| Structure (SMILES) | IC50 (Human Tyk2 kinase domain) | IC50 (JAK1) | IC50 (JAK2) | IC50 (JAK3) |
| --- | --- | --- | --- | --- |
| COCCC(C1CCC1)n1cc(-c2nc(-c3cnn(C)c3)cc3nccn23)cn1 (stereo not drawn) [Example 76, 5-(1-(1-cyclobutyl-3-methoxypropyl)-1H-pyrazol-4-yl)-7-(1-methyl-1H-pyrazol-4-yl)imidazo[1,2-c]pyrimidine] | 100 to 1000 nM | > 1000 nM | 100 to 1000 nM | > 1000 nM |
| COC(=O)CC(c1ccccc1)n1cc(-c2nc(-c3cnn(C)c3)cc3nccn23)cn1 (stereo not drawn) [Example 77, methyl 3-(4-(7-(1-methyl-1H-pyrazol-4-yl)imidazo[1,2-c]pyrimidin-5-yl)-1H-pyrazol-1-yl)-3-phenylpropanoate] | 100 to 1000 nM | 100 to 1000 nM | 100 to 1000 nM | 100 to 1000 nM |
| O=S(=O)(N1CC(CCF)(n2cc(-c3nc(-c4cn[nH]c4)cc4nccn34)cn2)C1)C(F)(F)F [Example 78, 5-(1-(3-(2-fluoroethyl)-1-((trifluoromethyl)sulfonyl)azetidin-3-yl)-1H-pyrazol-4-yl)-7-(1H-pyrazol-4-yl)imidazo[1,2-c]pyrimidine] | < 10 nM | 10 to 100 nM | 10 to 100 nM | 100 to 1000 nM |
| Cn1ccc(-c2cc3nccn3c(-c3cnn(C4(CCF)CN(S(=O)(=O)C(F)(F)F)C4)c3)n2)cc1=O [Example 79, 4-(5-(1-(3-(2-fluoroethyl)-1-((trifluoromethyl)sulfonyl)azetidin-3-yl)-1H-pyrazol-4-yl)imidazo[1,2-c]pyrimidin-7-yl)-1-methylpyridin-2(1H)-one] | 10 to 100 nM | 100 to 1000 nM | 100 to 1000 nM | 100 to 1000 nM |
| COC(=O)CC(c1ccc(F)cc1)n1cc(-c2nc(-c3cnn(C)c3)cc3nccn23)cn1 (stereo not drawn) [Example 80, methyl 3-(4-fluorophenyl)-3-(4-(7-(1-methyl-1H-pyrazol-4-yl)imidazo[1,2-c]pyrimidin-5-yl)-1H-pyrazol-1-yl)propanoate] | 100 to 1000 nM | > 1000 nM | 100 to 1000 nM | > 1000 nM |
| Cn1cc(-c2cc3nccn3c(-c3cnn(C(CCO)c4ccc(F)cc4)c3)n2)cn1 (stereo not drawn) [Example 81, 3-(4-fluorophenyl)-3-(4-(7-(1-methyl-1H-pyrazol-4-yl)imidazo[1,2-c]pyrimidin-5-yl)-1H-pyrazol-1-yl)propan-1-ol] | 100 to 1000 nM | 100 to 1000 nM | 100 to 1000 nM | 100 to 1000 nM |
| COCCC(c1ccc(F)cc1)n1cc(-c2nc(-c3cnn(C)c3)cc3nccn23)cn1 (stereo not drawn) [Example 82, 5-(1-(1-(4-fluorophenyl)-3-methoxypropyl)-1H-pyrazol-4-yl)-7-(1-methyl-1H-pyrazol-4-yl)imidazo[1,2-c]pyrimidine] | 100 to 1000 nM | 100 to 1000 nM | 100 to 1000 nM | 100 to 1000 nM |
| Cc1nn(C)cc1S(=O)(=O)N1CC(CCF)(n2cc(-c3nc(-c4cnn(C)c4)cc4nccn34)cn2)C1 [Example 85, 5-(1-(1-((1,3-dimethyl-1H-pyrazol-4-yl)sulfonyl)-3-(2-fluoroethyl)azetidin-3-yl)-1H-pyrazol-4-yl)-7-(1-methyl-1H-pyrazol-4-yl)imidazo[1,2-c]pyrimidine] | 100 to 1000 nM | 100 to 1000 nM | 100 to 1000 nM | > 1000 nM |
| Cn1cc(-c2cc3nccn3c(-c3cnn(C4(CCF)CN(S(=O)(=O)CC5CC5)C4)c3)n2)cn1 [Example 87, 5-(1-(1-((cyclopropylmethyl)sulfonyl)-3-(2-fluoroethyl)azetidin-3-yl)-1H-pyrazol-4-yl)-7-(1-methyl-1H-pyrazol-4-yl)imidazo[1,2-c]pyrimidine] | 100 to 1000 nM | 100 to 1000 nM | 100 to 1000 nM | 100 to 1000 nM |
| COCCn1cc(-c2cc3nccn3c(-c3cnn(C4(CCF)CN(S(=O)(=O)C(F)(F)F)C4)c3)n2)cn1 [Example 89, 5-(1-(3-(2-fluoroethyl)-1-((trifluoromethyl)sulfonyl)azetidin-3-yl)-1H-pyrazol-4-yl)-7-(1-(2-methoxyethyl)-1H-pyrazol-4-yl)imidazo[1,2-c]pyrimidine] | < 10 nM | 10 to 100 nM | 10 to 100 nM | 100 to 1000 nM |

The remaining lines, values ahead:

| IC50 (Human Tyk2 kinase domain) | IC50 (JAK1) | IC50 (JAK2) | IC50 (JAK3) | Structure (SMILES) |
| --- | --- | --- | --- | --- |
| 10 to 100 nM | 100 to 1000 nM | 100 to 1000 nM | 100 to 1000 nM | CCCCC1(n2cc(-c3nc(-c4cnn(C)c4)cc4nccn34)cn2)CN(S(=O)(=O)C(F)(F)F)C1 [Example 83, 5-(1-(3-butyl-1-((trifluoromethyl)sulfonyl)azetidin-3-yl)-1H-pyrazol-4-yl)-7-(1-methyl-1H-pyrazol-4-yl)imidazo[1,2-c]pyrimidine] |
| 100 to 1000 nM | > 1000 nM | 100 to 1000 nM | > 1000 nM | Cn1cc(-c2cc3nccn3c(-c3cnn(C4(CCF)CN(S(=O)(=O)CC(F)(F)F)C4)c3)n2)cn1 [Example 86, 5-(1-(3-(2-fluoroethyl)-1-((2,2,2-trifluoroethyl)sulfonyl)azetidin-3-yl)-1H-pyrazol-4-yl)-7-(1-methyl-1H-pyrazol-4-yl)imidazo[1,2-c]pyrimidine] |
| 10 to 100 nM | 100 to 1000 nM | 10 to 100 nM | 100 to 1000 nM | CCCC1(n2cc(-c3nc(-c4cnn(C)c4)cc4nccn34)cn2)CN(S(=O)(=O)C(F)(F)F)C1 [Example 88, 7-(1-methyl-1H-pyrazol-4-yl)-5-(1-(3-propyl-1-((trifluoromethyl)sulfonyl)azetidin-3-yl)-1H-pyrazol-4-yl)imidazo[1,2-c]pyrimidine] |
| 10 to 100 nM | 10 to 100 nM | 10 to 100 nM | 10 to 100 nM | CC=CCC1(n2cc(-c3nc(-c4cnn(C)c4)cc4nccn34)cn2)CN(S(=O)(=O)C(F)(F)F)C1 [Example 90, 5-(1-(3-(but-2-en-1-yl)-1-((trifluoromethyl)sulfonyl)azetidin-3-yl)-1H-pyrazol-4-yl)-7-(1-methyl-1H-pyrazol-4-yl)imidazo[1,2-c]pyrimidine] |
| < 10 nM | 10 to 100 nM | 10 to 100 nM | 100 to 1000 nM | C=CCC1(n2cc(-c3nc(-c4cnn(C)c4)cc4nccn34)cn2)CN(S(=O)(=O)C(F)(F)F)C1 [Example 91, 5-(1-(3-allyl-1-((trifluoromethyl)sulfonyl)azetidin-3-yl)-1H-pyrazol-4-yl)-7-(1-methyl-1H-pyrazol-4-yl)imidazo[1,2-c]pyrimidine] |
